Experimental findings from US12479847B2 (DANA-FARBER CANCER INSTITUTE, INC., priority 2019, dated 2025) are described below.

In experiment [1] the target is T1, panel of 468 kinases (Homo sapiens, UniProt P54762).
T1 construct: purchased KINOMEscan (ScanMAX) service
T1 sequence (P54762 18-984): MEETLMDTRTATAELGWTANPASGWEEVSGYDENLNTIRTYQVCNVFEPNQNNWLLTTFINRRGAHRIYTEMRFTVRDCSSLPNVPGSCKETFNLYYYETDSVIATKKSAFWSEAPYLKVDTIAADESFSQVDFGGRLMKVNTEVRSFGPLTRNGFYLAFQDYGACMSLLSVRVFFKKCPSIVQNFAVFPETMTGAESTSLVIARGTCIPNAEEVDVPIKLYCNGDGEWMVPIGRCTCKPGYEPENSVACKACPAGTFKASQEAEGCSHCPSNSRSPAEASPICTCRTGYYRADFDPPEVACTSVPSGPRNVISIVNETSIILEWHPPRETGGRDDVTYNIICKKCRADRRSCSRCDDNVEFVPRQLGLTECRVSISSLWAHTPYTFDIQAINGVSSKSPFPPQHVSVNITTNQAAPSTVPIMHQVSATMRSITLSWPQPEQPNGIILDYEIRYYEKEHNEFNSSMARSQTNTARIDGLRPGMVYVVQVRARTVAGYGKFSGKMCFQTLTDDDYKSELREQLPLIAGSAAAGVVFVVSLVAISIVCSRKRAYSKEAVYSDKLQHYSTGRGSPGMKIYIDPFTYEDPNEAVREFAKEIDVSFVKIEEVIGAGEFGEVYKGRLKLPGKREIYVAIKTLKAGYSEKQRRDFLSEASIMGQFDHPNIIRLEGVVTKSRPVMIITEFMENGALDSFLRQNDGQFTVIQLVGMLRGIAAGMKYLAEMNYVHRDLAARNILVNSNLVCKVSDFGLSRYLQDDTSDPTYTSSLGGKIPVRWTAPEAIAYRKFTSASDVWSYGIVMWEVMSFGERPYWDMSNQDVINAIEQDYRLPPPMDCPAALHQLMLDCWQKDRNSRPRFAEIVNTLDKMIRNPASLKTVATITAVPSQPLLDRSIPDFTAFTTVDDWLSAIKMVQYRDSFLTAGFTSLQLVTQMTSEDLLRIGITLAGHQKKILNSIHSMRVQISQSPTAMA
Nature of the experiment: KINOMEscan (ScanMAX) kinase profiling. The class given is binding. As to conditions: EPHB1; 1 μM; read-out: % control.

For experiment [2], the target named is T2, panel of 468 kinases (Homo sapiens, UniProt Q6XUX3).
T2 construct: purchased KINOMEscan (ScanMAX) service
T2 sequence (Q6XUX3 1-929): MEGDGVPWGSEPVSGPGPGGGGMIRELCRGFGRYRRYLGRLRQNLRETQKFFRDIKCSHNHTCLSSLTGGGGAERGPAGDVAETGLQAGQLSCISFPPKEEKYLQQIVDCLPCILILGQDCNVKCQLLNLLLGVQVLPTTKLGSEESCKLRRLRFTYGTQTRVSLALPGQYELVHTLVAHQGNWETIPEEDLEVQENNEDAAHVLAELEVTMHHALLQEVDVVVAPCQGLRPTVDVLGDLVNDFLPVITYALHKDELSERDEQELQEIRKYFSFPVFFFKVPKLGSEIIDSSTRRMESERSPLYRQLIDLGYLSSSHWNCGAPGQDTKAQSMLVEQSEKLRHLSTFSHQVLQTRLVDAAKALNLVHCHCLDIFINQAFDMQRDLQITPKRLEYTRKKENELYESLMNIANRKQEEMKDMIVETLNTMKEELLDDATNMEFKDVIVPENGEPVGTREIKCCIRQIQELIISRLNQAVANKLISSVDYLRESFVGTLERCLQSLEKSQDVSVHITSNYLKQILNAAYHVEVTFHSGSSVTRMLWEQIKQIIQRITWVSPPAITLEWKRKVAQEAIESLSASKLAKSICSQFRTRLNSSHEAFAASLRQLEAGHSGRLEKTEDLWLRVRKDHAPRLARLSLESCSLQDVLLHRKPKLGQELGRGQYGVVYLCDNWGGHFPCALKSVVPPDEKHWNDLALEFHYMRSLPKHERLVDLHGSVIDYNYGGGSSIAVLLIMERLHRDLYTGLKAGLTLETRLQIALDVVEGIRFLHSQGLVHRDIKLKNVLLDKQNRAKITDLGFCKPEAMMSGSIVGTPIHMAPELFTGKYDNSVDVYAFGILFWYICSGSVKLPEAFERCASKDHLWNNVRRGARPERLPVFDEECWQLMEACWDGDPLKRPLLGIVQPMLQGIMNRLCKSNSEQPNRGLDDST
The experiment in a line: KINOMEscan (ScanMAX) kinase profiling. Type of experiment: binding. As to conditions: RIPK5; 1 μM; read-out: % control.

With `CNc1nc(Nc2ccc(S(=O)(=O)N3CCC(N4CCOCC4)CC3)cc2OC)nc2[nH]cc(Cl)c12` [Compound 12, 5-chloro-N2-(2-methoxy-4-((4-morpholinopiperidin-1-yl)sulfonyl)phenyl)-N4-methyl-7H-pyrrolo[2,3-d]pyrimidine-2,4-diamine], the values for the remaining binding at 1 µM on panel of 468 kinases [1] and on panel of 468 kinases [2] were 88% and 23%, respectively.
For `CNc1nc(Nc2ccc(C(=O)N3CCC(N4CCOCC4)CC3)c3c2OCO3)nc2[nH]cc(Cl)c12` [Compound 75, (7-((5-chloro-4-(methylamino)-7H-pyrrolo[2,3-d]pyrimidin-2-yl)amino)benzo[d][1,3]dioxol-4-yl)(4-morpholinopiperidin-1-yl)methanone], in that order: 100% and 9.9%.
As for `CNc1nc(Nc2ccc(P3(=O)CCN(C4CCOCC4)CC3)cc2OC)nc2[nH]cc(Cl)c12` [Compound 77, 4-(4-((5-chloro-4-(methylamino)-7H-pyrrolo[2,3-d]pyrimidin-2-yl)amino)-3-methoxyphenyl)-1-(tetrahydro-2H-pyran-4-yl)-1,4-azaphosphinane 4-oxide], the results for the remaining binding at 1 µM at panel of 468 kinases [1] and at panel of 468 kinases [2] were 100% and 20%, respectively.
